Measured values taken from ChEMBL document CHEMBL3392985, “Dithiocarbamate-thiourea hybrids useful as vaginal microbicides also show reverse transcriptase inhibition: design, synthesis, docking and pharmacokinetic studies” (Bioorg Med Chem Lett, 2015).
Values after ≈ are worked out from the molar mass of the structure shown.

Key:
[1] = Spermicidal activity against human sperm by microscopic analysis; assay type: functional
Trichomonas vaginalis = test: Antimicrobial activity against Trichomonas vaginalis after 3 to 48 hrs by trypan blue exclusion assay; assay type: functional
[2] = biological target: Human immunodeficiency virus type 1 reverse transcriptase (Human immunodeficiency virus 1) (UniProt Q72547); test: Inhibition of HIV-1 reverse transcriptase using digoxigenin/biotin-labeled dUTP as substrate at 100 ug/ml incubated for 1 hr followed by compound washout measured after 1 hr by non-radioactive ELISA relative to control
HeLa = test: Cytotoxicity against human HeLa cells assessed as cell viability at 200 ug/ml after 24 hrs by lactate dehydrogenase release assay; assay type: cell-based
[3] = Toxicity against Lactobacillus acidophilus at 200 ug/ml after 24 hrs
Homo sapiens = species on record: Homo sapiens; test: Ratio of nonoxynol-9 MEC to compound MEC for human sperm; assay type: functional
[4] = Stability of the compound in simulated vaginal fluid at 100 ng/ml at pH 2 up to 1 hr by LC/MS/MS analysis; assay type: ADME; settings: buffer, pH 2, 1 h
[5] = Terminal half life in rabbit administered intravaginally after 1 hr; assay type: ADME, organism-based, Oryctolagus cuniculus; settings: in vivo, read-out: beta t1/2 (converted)
[6] = Cmax in rabbit administered administered intravaginally after 1 hr; assay type: ADME, organism-based, Oryctolagus cuniculus; settings: in vivo

SMILES | MEC [1] [%] | MIC (Trichomonas vaginalis) [µg/mL] | inhibition [2] [%] | Activity (HeLa) | Activity [3] | Ratio (Homo sapiens) | Stability [4] | half-life [5] [h] | Cmax [6] [ng/mL]
S=C(Nc1ccccc1)N1CCN(C(=S)SCc2ccccc2)CC1 | >2 | 250 (≈ 645 µM) | 21.9 | – | – | – | – | – | –
O=C(NC(=S)N1CCN(C(=S)SCc2ccccc2)CC1)c1ccccc1 | 1 | 62.5 (≈ 150 µM) | 12.3 | – | – | – | – | – | –
S=C(Nc1cccnc1)N1CCN(C(=S)SCc2ccccc2)CC1 | 2 | > 500 | 25.8 | – | – | – | – | – | –
CCCCCCSC(=S)N1CCN(C(=S)NCc2ccccc2)CC1 | >2 | 250 (≈ 632 µM) | 27.3 | – | – | – | – | – | –
CCCCSC(=S)N1CCN(C(=S)NCc2ccccc2)CC1 | >2 | 500 (≈ 1360 µM) | 14.2 | – | – | – | – | – | –
CCCCCCSC(=S)N1CCN(C(=S)NC(=O)c2ccccc2)CC1 | 0.05 | 7.78 (≈ 19 µM) | 23.2 | Non-toxic | Non-toxic | – | – | – | –
CCCCCCCCSC(=S)N1CCN(C(=S)Nc2ccccc2)CC1 | 1 | 125 (≈ 305 µM) | 24 | – | – | – | – | – | –
CCCSC(=S)N1CCN(C(=S)Nc2ccccc2)CC1 | >2 | 500 (≈ 1470 µM) | 21.5 | – | – | – | – | – | –
CCCSC(=S)N1CCN(C(=S)NC(=O)c2ccccc2)CC1 | 0.025 | 62.5 (≈ 170 µM) | 31.4 | Non-toxic | Non-toxic | 2 | – | – | –
CCCCCCCCSC(=S)N1CCN(C(=S)Nc2cccnc2)CC1 | 2 | 62.5 (≈ 152 µM) | 44.7 | – | – | – | – | – | –
CCCCCCSC(=S)N1CCN(C(=S)NCCc2ccccc2)CC1 | 1 | 250 (≈ 610 µM) | 14.8 | – | – | – | – | – | –
CCCCCCSC(=S)N1CCN(C(=S)Nc2ccccc2)CC1 | >2 | > 500 | 1.9 | – | – | – | – | – | –
CCCSC(=S)N1CCN(C(=S)NCCc2ccccc2)CC1 | >2 | 250 (≈ 680 µM) | 28.4 | – | – | – | – | – | –
S=C(NCCc1ccccc1)N1CCN(C(=S)SCc2ccccc2)CC1 | >2 | 62.5 (≈ 150 µM) | 11.8 | – | – | – | – | – | –
CCCCCCCCSC(=S)N1CCN(C(=S)NC(=O)c2ccccc2)CC1 | 0.025 | 15.6 (≈ 35.5 µM) | 41.3 | Non-toxic | Non-toxic | 2 | Stable | – | –
S=C(NCc1ccccc1)N1CCN(C(=S)SCc2ccccc2)CC1 | >2 | 125 (≈ 311 µM) | 9.11 | – | – | – | – | – | –
CCCCCCCCCc1ccc(OCCOCCOCCOCCOCCOCCOCCOCCOCCO)cc1 [NONOXYNOL 9] | 0.05 | 20 (≈ 32.4 µM) | – | – | – | – | – | 1.45 | 4.87
CCCCCCCCSC(=S)N1CCN(C(=S)NCc2ccccc2)CC1 | 1 | 250 (≈ 590 µM) | 36.5 | – | – | – | – | – | –
CCCCCCCCSC(=S)N1CCN(C(=S)NCCc2ccccc2)CC1 | >2 | 250 (≈ 571 µM) | 15.7 | – | – | – | – | – | –
CCCSC(=S)N1CCN(C(=S)Nc2cccnc2)CC1 | 0.5 | 125 (≈ 367 µM) | 35.4 | – | – | – | – | – | –
CCCSC(=S)N1CCN(C(=S)NCc2ccccc2)CC1 | 1 | 15.6 (≈ 44 µM) | 20.6 | – | – | – | – | – | –
CCCCCCSC(=S)N1CCN(C(=S)Nc2cccnc2)CC1 | 0.05 | 125 (≈ 327 µM) | 26.1 | Non-toxic | Non-toxic | – | – | – | –
CCCCSC(=S)N1CCN(C(=S)Nc2ccccc2)CC1 | >2 | 125 (≈ 354 µM) | 30.9 | – | – | – | – | – | –
CCCCSC(=S)N1CCN(C(=S)NCCc2ccccc2)CC1 | >2 | 250 (≈ 655 µM) | 13.5 | – | – | – | – | – | –
CCCCSC(=S)N1CCN(C(=S)NC(=O)c2ccccc2)CC1 | 1 | 125 (≈ 328 µM) | 27.8 | – | – | – | – | – | –
CCCCSC(=S)N1CCN(C(=S)Nc2cccnc2)CC1 | >2 | 250 (≈ 705 µM) | 14.9 | – | – | – | – | – | –
